Laboratory results taken from patent publication US6756200B2, “Aberrantly methylated genes as markers of breast malignancy” (The Johns Hopkins University School of Medicine, priority 2001, dated 2004).
“Also recorded” adds a separate entry of the source.

Tests used:
Type in all cases: cell-based, human
MCF-7 cells = experiment: Pon A induction of HOXA5 in MCF-7 clones with ecdysone-inducible HOXA5: p53 pathway and apoptosis
From the text: Immunoblot Analysis: Proteins were visualized by Western analysis and 10% SDS-PAGE. The primary antibodies [anti-HOXA5 (HOXA5-2, BABCO), anti-p53 (AB-6, Oncogene Science), or anti-β-actin (AC-15, Sigma), anti-p21 (15091A, Pharmingen), anti-Mdm2 (65101A, Pharmingen), anti-PARP (AB-2, Oncogene Sciences), anti-dynein (Zymed) and anti- Na+, K+-ATPase (Ed Benz, Johns Hopkins) (also used as loading controls, with actin)] were used at 1:1000 dilution.
To test this possibility, breast cancer cells, MCF-7 and ZR75.1, which harbor wildtype p53 genes, were transfected with the full length HOXA5 and the ΔHOXA5 (homeodomain-deleted) expression plasmids and tested for colony-forming ability. No surviving colonies were obtained from HOXA5-transfected cells whereas those transfected with ΔHOXA5 and the vector control generated colonies with equal efficiency. To obtain stable cultures that could express HOXA5, clones of MCF-7 cells were generated in which the HOXA5 gene was placed under the control of an ecdysone-inducible promoter. Within 3 hours after induction of HOXA5 expression by the ecdysone analog, Ponasterone A (Pon A), the levels of p53 mRNA rose by 2-fold.

RAR β = RAR β expression by RT-PCR after drug treatment
Protocol: Human breast cancer cell lines were maintained in Dulbecco's modified Eagle's medium (GIBCO) (Hs578t,MCF-7, MDA-MB-231 and T47D) or IMEM medium (Biofluids) (MDA-MB-435, MDA-MB-468, ZR751) with 5% fetal calf serum (FCS). For drug treatments, exponentially growing cells were seeded in 10 cm^2 plates at a density of 36105 cells/plate or in 6-well plates at 16105 cells/well. […] When reduction of retinoids was required, cells were treated in either medium with 0.5% FCS or charcoal-dextran stripped FCS (Hyclone). At the indicated time points, both attached and detached cells were harvested, counted with Trypan Blue (Life Technologies) and processed for DNA or RNA extraction. 5-Aza-CdR was dissolved in 0.45% NaCl containing 10 mM sodium phosphate (pH 6.8). Trichostatin A and all-trans-retinoic acid (RA) (Sigma) were reconstituted in absolute ethanol (solvent).

RAR β2 promoter = experiment: Methylation of RAR β2 promoter CpG island (Southern blotting, MSP) after drug treatment; conditions: MCF7 cells; in the presence of RA
MDA-MB-231 cells = experiment: Growth inhibition (%) by cell counting with Trypan Blue
From the text: (§1) Cell cultures Human epithelial mammary cells (HEMC) from reduction mammoplasty including three mortal strains, 184, 48R and 172R, and two immortal strains, 184A1 and 184B5, were obtained and cultured according to the protocols designed by Dr Martha Stampfer (see the HMEC Homepage, http://www.lbl.gov/*mrgs/index.htlm) using Clonetics (Walkersville, Md., USA) reagents. Human breast cancer cell lines were maintained in Dulbecco's modified Eagle's medium (GIBCO) (Hs578t,MCF-7, MDA-MB-231 and T47D) or IMEM medium (Biofluids) (MDA-MB-435, MDA-MB-468, ZR751) with 5% fetal calf serum (FCS). For drug treatments, exponentially growing cells were seeded in 10 cm^2 plates at a density of 36105 cells/plate or in 6-well plates at 16105 cells/well. Cells were allowed to attach overnight before the addition of the appropriate concentration of 5-Aza-2′ deoxycytidine (5-Aza-CdR) (Sigma), Trichostatin A (TSA) (Sigma) or RA(Sigma). When reduction of retinoids was required, cells were treated in either medium with 0.5% FCS or charcoal-dextran stripped FCS (Hyclone). At the indicated time points, both attached and detached cells were harvested, counted with Trypan Blue (Life Technologies) and processed for DNA or RNA extraction. 5-Aza-CdR was dissolved in 0.45% NaCl containing 10 mM sodium phosphate (pH 6.8). Trichostatin A and all-trans-retinoic acid (RA) (Sigma) were reconstituted in absolute ethanol (solvent).

breast cancer cell lines = experiment: Growth inhibition of a panel of breast cancer cell lines by RA; conditions: T47D, MDA-MB-435, MCF7 and ZR75-1 cell lines; 1 μM RA, 48 h
From the text: as §1, with “Trichostatin A and all-trans-retinoic acid (RA) (Sigma) were reconstituted in absolute ethanol (solvent).” left out

WT1 = WT1 expression by RT-PCR after treatment of breast cancer cell lines with 5-aza-dC or TSA
From the text: (§2) Cell lines and finite life span cultures Cell lines were obtained from ATCC (Rockville, Md.) and grown according to conditions specified. Also utilized were three independent cultures of finite life span human mammary epithelial cells (HMEC): 16637 (Clonetics, Walkersville, Md.) and 1-26, 3-14 (kindly provided by Dr. Steve Ethier, Univ. Michigan, Ann Arbor, Mich.).
RT-PCR for WT1 mRNA Methods for RNA extraction and RT-PCR are known to those of skill in the art. The sequences of the primers used are as follows: for amplifying the 555 bp region surrounding WT1 exon 5, 5′-[…]-3′ (sense, nucleotides 882-901; Q ID NO:1) and 5′-[…]-3′ (antisense, nucleotides 1416-1437; SEQ ID NO:2); for amplifying the 382 bp region surrounding the KTS insert, 5′-[…]-3′ (sense, nucleotides 1320-1339; SEQ ID NO:3) and 5′-[…]-3′ (antisense, nucleotides 1685-1702; SEQ ID NO:4). Amplification was performed using a hot-start protocol: samples were heated to 94° C. for 4 minutes and then cooled to 80° C. prior to the addition of Taq polymerase (RedTaq, Sigma, St. Louis, Mo.). Samples were then heated to 94° C. for 30 seconds followed by either 50° C. for 30 seconds (for the KTS primers) or 56° C. for 30 seconds (for the Exon 5 primers) and then 72° C. for 1 minute for 40 cycles. PCR products were resolved by electrophoresis, using a 2% agarose gel for the exon 5-splice variants and a 12% polyacrylamide gel to resolve the KTS insert variants. Co-amplification of the ribosomal RNA 36B4 was performed as an internal control using the following primers: 5′-[…]-3′ (sense; SEQ ID NO:5) and 5′-[…]-3′ (antisense; SEQ ID NO:6).

14.3.3σ = 14.3.3σ expression in the same treated samples; conditions: same samples: MDA-MB-231 and MCF-7 cells treated with 5-aza-deoxyC or TSA
From the text: as §2

cyclin D2 promoter = experiment: Methylation-specific PCR of the cyclin D2 promoter after 5-aza-dC; conditions: MDAMB231 and MCF7 cells; 0.75 μM 5-aza-dC
Protocol: Methylation-specific PCR (MSP). One μg genomic DNA or the 50 ul extract of microdissected cells was treated with sodium bisulfite as described in Herman J G, (1996), and was analyzed by MSP using primer sets located within the CpG-rich island in the cyclin D2 promoter. Primers specific for unmethylated DNA were 5′-[…]-3′ (sense; SEQ ID NO:21) and 5′-[…]-3′ (antisense; SEQ ID NO:22) and yielded a 223 base-pairs PCR product. Primers specific for methylated DNA were 5′-[…]-3′ (sense; SEQ ID NO:23) and 5′-[…]-3′ (antisense; SEQ ID NO:24) and yielded a 276 base-pair PCR product. The PCR conditions were as follows: 1 cycle of 95° C. for 5 min; 35 cycles of 95° C. for 30s, 55° C. for 30s and 72° C. for 45s; and 1 cycle of 72° C. for 5 min.

cyclin D2 = experiment: Cyclin D2 mRNA re-expression by RT-PCR after 5-aza-dC or TSA; conditions: MDAMB231 and MCF7 cells
Protocol: RT-PCR. […] PCR was performed using the primers [NT] (sense; SEQ ID NO:15) and [NT] […] (sense; SEQ ID NO: 17) and [NT] […] (sense; SEQ ID NO:19) and [NT] antisense; SEQ ID NO:20).

σ CpG island = experiment: Methylation-specific PCR of the σ CpG island after 5-aza-dC; conditions: Hs578t and MDA-MB-435 cells; 0.75 μM 5-aza-dC for 3 days
Protocol: Methylation-specific PCR (MSP). One μg genomic DNA was treated with sodium bisulfite as described in (Herman, et al. (1996) Proc. Natl. Acad. Sci. USA 93, 9821-9826), and was analyzed by MSP using a primer set that covered CG dinucleotide numbers 3, 4, 8 and 9. Primers specific for methylated DNA: 5′-[…]-3′ (sense; SEQ ID NO:37) and 5′-[…]-3′ (antisense; SEQ ID NO:38), and primers specific for unmethylated DNA: 5′-[…]-3′ (sense; SEQ ID NO:39) and 5′-[…]-3′(antisense; SEQ ID NO:40) yielded a 105-107 bp PCR product. The PCR conditions were as follows: 1 cycle of 95° C. for 5 min; 31 cycles of 95° C. for 45s, 56° C. for 30s and 72° C. for 30s; and 1 cycle of 72° C. for 4 min.
(§3) Cells were seeded at a density of 2×10^6 cells per 100-mm plate.

σ = σ gene expression by RT-PCR after 5-aza-dC; conditions: Hs578t and MDA-MB-435 cells; 0.75 μM 5-aza-dC for 3 days
Protocol: as §3
RT-PCR. […] PCR was performed using the σ-specific primers 5′-[…]-3′ (SEQ ID NO:41) and 5′-[…]-3′ (SEQ ID NO:42) using buffer conditions described herein. The PCR conditions were: 1 cycle of 95° C. for 5 min; 30 cycles of 60° C. for 45s, 72° C. for 45s and 95° C. for 45s. PCR samples were resolved by electrophoresis in a 2% agarose gel.

HOXA5 = HOXA5 mRNA re-expression by RT-PCR after 5-aza-dC; conditions: MDA-MB-231 cells; 0.75 μM 5-aza-dC
Protocol: RT-PCR was performed using primers: 5′ […]-3′ (sense; SEQ ID NO:75) and 5′[…]-3′ (antisense; SEQ ID NO:76).

[1] = 0.4 mM 5-Aza-CdR and/or 1 μM RA
[2] = 2 days, 100 ng/ml TSA and/or RA

SMILES: CC(C)CC[C@@H](O)[C@](C)(O)[C@H]1CC[C@@]2(O)C3=CC(=O)[C@@H]4C[C@@H](O)[C@@H](O)C[C@]4(C)[C@H]3CC[C@]12C [Pon A, Ponasterone A]
- DNA laddering (MCF-7 cells): observed
- levels of Bax protein (MCF-7 cells): not accompanied by a detectable change
- p53, p21, Mdm2 and HOXA5 induction (Western blotting) (MCF-7 cells): 2-5 fold
- cells with micronucleus formation, membrane blebbing and ghost cell features (MCF-7 cells; acridine orange staining): 70%
- cell death (MCF-7 cells; after 48 hours): 80-90%
- poly (ADP-ribose) polymerase cleavage (MCF-7 cells; by 12 hours): underwent cleavage
- cell morphology (MCF-7 cells; by 24 hours): cell shrinkage
- levels of p53 mRNA (MCF-7 cells; within 3 hours after induction): 2 fold

SMILES: CC1=C(/C=C/C(C)=C/C=C/C(C)=C/C(=O)O)C(C)(C)CCC1 [RA, all-trans-retinoic acid]
- RAR β expression (RAR β; T47D, MDA-MB-435, MCF7 and ZR75-1 cell lines, 1 μM RA, 48 h): induction of RAR β expression
- methylation at RAR β2 (RAR β2 promoter): persistence of methylation
- growth inhibition (MDA-MB-231 cells; [1]): 52%
- growth inhibition (MDA-MB-231 cells; [2]): 52%
- growth inhibition (breast cancer cell lines): growth inhibition

SMILES: Nc1ncn([C@H]2C[C@H](O)[C@@H](CO)O2)c(=O)n1 [5-aza-dC, 5-aza-2′-deoxycytidine]
- WT1 expression (WT1; MCF-7 cells, 0.75 μM 5-aza-dC, listed as 5-aza-deoxyC): not seen; also recorded: did not cause WT1 expression
- WT1 expression (WT1; MDA-MB-231 cells, 0.75 μM 5-aza-dC, listed as 5-aza-deoxyC): results in re-expression of the gene; also recorded: resulted in WT1 expression
- expression of 14.3.3σ (14.3.3σ): restored expression
- cyclin D2 promoter methylation (MSP) (cyclin D2 promoter): partially demethylated
- cyclin D2 mRNA expression (RT-PCR) (cyclin D2; 0.75 μM 5-aza-dC): restored
- methylation of the σ CpG rich region (MSP) (σ CpG island): demethylation
- σ gene expression (RT-PCR) (σ): reactivation of gene expression
- growth inhibition (MDA-MB-231 cells; [1]): 63%
- expression of HOXA5 mRNA (HOXA5): re-initiated

SMILES: CC(/C=C/C(=O)NO)=C\[C@@H](C)C(=O)c1ccc(N(C)C)cc1 [TSA, Trichostatin A]
- WT1 expression (WT1; MDA-MB-231 and MCF-7 cells (either cell line), 100 ng/ml TSA): no effect; also recorded: nor did TSA restore expression
- expression of 14.3.3σ (14.3.3σ): restored expression
- cyclin D2 mRNA expression (RT-PCR) (cyclin D2; 100 ng/ml TSA): re-expression
- RAR β mRNA expression (RT-PCR) (RAR β; MDA-MB-231 cells, 2 days, 100 ng/ml TSA with 1 μM RA): can reactivate RAR β expression
- growth inhibition (MDA-MB-231 cells; [2]): 77%
